Assay results as given in patent publication US20210369583A1, “COMPOSITIONS FOR PROVIDING SKIN CARE BENEFITS AND METHODS OF USE” (Danisco US Inc., priority 2018, published 2021).
Marks after values point to notes of the source that are not given here.

How the values were obtained:
Type in all cases: cell-based
[1] = system: human living skin explant; assay: Immunostaining of carbonylated proteins (FTZ) on human living skin explants; conditions: UV irradiated
Method: (§1) human skin explants of an average diameter of 12 mm (±1 mm) were prepared on an abdoplasty coming from a person). The explants were kept in survival in BEM culture medium at 37° C. in a humid, 5%-CO2 atmosphere.
(§2) On day 0 (D0), day 1, day 2 and day 3 (3 hours before irradiation), the tested products were applied topically on surface of skin explants at the rate of 2 mg/cm^2, twice a day for D1 and D2 and once on DO and D3. […] The medium was half renewed (1 ml per well) on day 2.
(§3) On D3, the culture media of all the batches was replaced by HBSS solution (Hank's Balanced Saline Solution; 1 ml per explant). The batches “UV” were irradiated by UVA+ UVB using a UV simulator Vibert Lourmat RMX 3W with a dose of 18 J/cm2 of UVA (4 MED, minimal erythemal dose) and 0.3 J/cm2 of UVB (2 MED). The unirradiated batches were kept in HBSS in the dark. At the end of the irradiation the explants were put back in 2 mL of BEM medium.
(§4) After fixation for 24 hours in buffered formalin, the samples were dehydrated and impregnated in paraffin using a Leica PEARL dehydration automat. The samples were embedded using a Leica EG 1160 embedding station. 5-μm-thick sections were made using a Leica RM 2125 Minot-type microtome, and the sections were mounted on Superfrost® histological glass slides. The frozen samples were cut into 7-μm-thick sections using a Leica CM 3050 cryostat. Sections were then mounted on Superfrost® plus silanized glass slides. The microscopical observations were realized using a Leica DMLB or Olympus BX43 microscope. Pictures were digitized with a numeric DP72 Olympus camera with CellD storing software.
Protein carbonylation is a type of protein oxidation that can be promoted by reactive oxygen species (ROS), generated by UV exposure. FTZ marker assay was conducted by immunostaining in the living epidermis of human skin explant as follows: Carbonylated proteins were stained on frozen sections with the anti-carbonylated proteins probe (fluorescein-5-thiosemicarbazid-FTZ) (Lifetechnologies, Ref. F-121) diluted at 0.5 μM in MES-Na+ and incubated for 30 minutes in the dark and at room temperature. The staining was observed by epifluorescence and assessed by microscopical observations. Batches analyzed were T, TUV, P1UV, P2UV, P3UV at day 4 also referred to as TJ4, TUVJ4, P1UVJ4, P2UVJ4, P3UVJ4

[2] = system: Aryl hydrocarbon receptor (AhR); assay: Immunostaining of AHR in human skin explants, image analysis
Method: (§5) 59 human skin explants of an average diameter of 14 mm (±1 mm) were prepared on an abdoplasty coming from a person. The explants were kept in survival in BEM culture medium at 37° C. in a humid, 5%-CO2 atmosphere.
(§6) The tested products were topically applied on the basis of 2 μl per cm^2 and spread using a small spatula twice a day (morning and evening) on day 0, 1, 2, 3 and 4.
(§7) On D4, the explants of the batches ML and PML were placed on the 3D grid with 900 μl of HBSS and placed into the PolluBox® system.
(§8) 3 mL of the solution <<ML>> (supplemented with 150 μl/ml of NaCl 0.9%) were exposed by vaporization for 1 hour and half, as shown in the figure below.
Aryl hydrocarbon receptor (AhR) is a transcriptional factor implicated in molecular response following the exposure of several compounds, including aromatic polycyclic hydrocarbon and ozone (Haarmann-Stemmann et al. 2012.JID 132:7-9; Afaq et al., 2009 JID 129:2396-2403). AhR is involved in activation of cytochrome family genes and CYP450 detoxification enzymes. In presence of pollution AhR is dissociated from the protein complex (HSP90), translocated to the nucleus, dimerized with ARNt, and binds to the DNA on target genes (Cytochrome family—activated in response to xenobiotics) (Ikuta et al., 2009. Biochemical pharmacology. 77:588-596). […] The immunostaining was performed using an automated slide processing system (Autostainer, Dako) and assessed by microscopical observation. Concerned batches: all the batches
The images analyses were performed on all the images (9 to 12 images) of each batch using the CellD storing software (Olympus Microscopy, Matrix Optics (M)SdnBhd, Taman Mayhang, Maylasia). For each batch of explants, the percentage of the region of interest covered by the staining (stained surface percentage) was determined by image analysis. […]
The ΔML for each treatment P was calculated using the same method to obtain the ΔPML, i.e. the variation of the Surf % induced by the pollutants exposure when treated with P. […]

[3] = system: living human skin explants; assay: Biochemical assay of MDA (lipid peroxidation) on living human skin explants exposed to pollutants
Method: Product A (Table 11) was diluted in water to obtain the following products at concentrations: product P1=A at 4%, product P2=A at 2% and product P3=A at 1%.
as §5, §6, §7, §8
The MDA assay was realized with an enhanced method of the TBARs (Thiobarbituric Acid Reactive Species) assay. The MDA was assayed in HBSS medium by addition of TBARs solution (thiobarbituric acid, hydrochloric acid and tricholoroacetic acid) and placed in a water bath (80° C. for 15 minutes). A lot of substances (like glucose) which are not related with lipoperoxidation, react with thiobarbituric acid (ThioBarbituric Acid Reagents=TBARS), so to enhance the specificity of the assay, the MDA was extracted by a liquid/liquid extraction with butanol. The MDA in butanol was measured in spectrofluorimetry (excitation: 515 nm, emission: 550 nm) using a Tecan Infinite M200 Pro microplate reader. Using this assay, MDA contained in the culture medium BEMc on […] was measured for the 4 explants per batch. The MDA concentration was expressed in pmol of MDA/ml of the medium. Concerned batches: all batches on day 5, 4 explants per batch.
The average of the blank batch TJ5 was calculated (154.0 nmol/L). Then, for each explant of MLJ5, this average value was subtracted from […]. That corresponds to calculating the delta (increase) of MDA induced by ML for each explant compared to the average of the batch without ML, it is ΔML.
These average deltas were then compared to the average delta of MDA induction without treatment (ΔML).

[4] = system: human living skin explant; assay: Cell viability of human living skin explants (UV study); conditions: non irradiated; day 4
Method: as §1, §2, §3, §4

[5] = system: human living skin explant; assay: TUNEL assay (UV-induced DNA damage) on human living skin explants; conditions: UV irradiated
Method: as §1, §2, §3, §4
DNA oxidization is a type of damage that can be promoted by reactive oxygen species (ROS), generated by UV exposure. […] The staining was assessed by microscopical observation. Batches analyzed were T, TUV, P1UV, P2UV, P3UV at day 4 also referred to as TJ4, TUVJ4, P1UVJ4, P2UVJ4, P3UVJ4 (T=Control batch non treated non irradiated; TJ4=T at Day 4 (D4); TUV: control batch non treated UV irradiated; TUVJ4=[…] at Day 4; P1J4: product A 4% non irradiated at D4; P2J4: product A 2% non irradiated at D4; P3J4: product A 1% non irradiated at D4; P1UV: product A 4% UV irradiated; P1UVJ4: product A 4% UV irradiated at D4 P2UV: product A 2% UV irradiated; P2UVJ4: product A 2% UV irradiated at D4; P3UV: product A 1% UV irradiated; P3UVJ4: product A 1% UV irradiated at D4

[6] = after pollutants exposure, day 5

O=C(O)[C@@H]1CCCN1 [Combination P6, L-Proline]
effect on UV-induced carbonylated proteins [1]: slightly inhibits the formation of carbonylated proteins | AHR, variation PML vs ML [2, 6]: −15%** | decrease of AhR expression compared to batch TJ5 ([2]; without pollutants, D5): 63% | AHR, variation P vs T ([2]; without pollutants, day 5): −63%* | MDA, variation ΔPML vs ΔML ([3]; MDA induction by pollutants, day 5): −62%* | reduction of the increase of MDA ([3]; after pollutant exposure (ΔPML vs ΔML)): 62% | MDA, variation PML vs ML [3, 6]: −18%* | Cell Viability, variation vs TJ4 [4]: ↔ (indicates no variation) | activity against UV-induced DNA damage [5]: totally inhibits the increase of DNA damage
